Key:
DU-145 = assay: Cytotoxicity against human DU-145 cells assessed as reduction in cell viability measured after 72 hrs by SRB assay; assay type: functional, cell-based; conditions: DU-145, 72 h
NCI-H460 [1] = assay: Cytotoxicity against human NCI-H460 cells assessed as reduction in cell viability measured after 72 hrs by SRB assay; assay type: functional, cell-based; conditions: NCI-H460, 72 h
HCT-116 = assay: Cytotoxicity against human HCT-116 cells assessed as reduction in cell viability measured after 72 hrs by SRB assay; assay type: functional, cell-based; conditions: HCT-116, 72 h
PANC-1 [2] = assay: Cytotoxicity against human PANC-1 cells assessed as reduction in cell viability measured after 72 hrs by SRB assay; assay type: functional, cell-based; conditions: PANC-1, 72 h
MIA PaCa-2 = assay: Cytotoxicity against human MIA PaCa-2 cells assessed as reduction in cell viability measured after 72 hrs by SRB assay; assay type: functional, cell-based; conditions: MIA PaCa-2, 72 h
BXPC-3 [3] = assay: Cytotoxicity against human BXPC-3 cells assessed as reduction in cell viability measured after 72 hrs by SRB assay; assay type: functional, cell-based; conditions: BXPC-3, 72 h
ASPC1 = assay: Cytotoxicity against human ASPC1 cells assessed as reduction in cell viability measured after 72 hrs by SRB assay; assay type: functional, cell-based; conditions: ASPC1, 72 h
BXPC-3 [4] = assay: Antitumour activity against human BXPC-3 cells xenografted in Crl:Nu-Foxnl nu mouse assessed as inhibition of tumour growth at total effective dose of 160 mg/kg, iv measured on day 36; assay type: functional; conditions: BXPC-3, iv, 864 h, time 36 day, read-out: TGI
BXPC-3 [5] = assay: Antitumour activity against human BXPC-3 cells xenografted in Crl:Nu-Foxnl nu mouse assessed as inhibition of tumour growth at total effective dose of 160 mg/kg, iv measured on day 32; assay type: functional; conditions: BXPC-3, iv, 768 h, time 32 day, read-out: TGI
MDA-MB-231 [6] = assay: Antitumour activity against human MDA-MB-231 cells xenografted in Crl:Nu-Foxnl nu mouse assessed as inhibition of tumour growth at total effective dose of 120 mg/kg, iv measured on day 32; assay type: functional; conditions: MDA-MB-231, iv, 768 h, time 32 day, read-out: TGI
Quadruplex DNA [7] = assay: Stabilization of 5'-FAM/3'-TAMRA labeled c-Myc promoter G4 quadruplex DNA FPu18 (unknown origin) assessed as change in melting temperature at 10 microM measured after 15 mins by FRET assay; assay type: nucleic-acid assay
Quadruplex DNA [8] = assay: Stabilization of 5'-FAM/3'-TAMRA labeled telomeric G4 quadruplex DNA F21T (unknown origin) assessed as change in melting temperature at 10 microM measured after 15 mins by FRET assay; assay type: nucleic-acid assay
Quadruplex DNA [9] = assay: Stabilization of 5'-FAM/3'-TAMRA labeled K-Ras G4 quadruplex DNA (unknown origin) assessed as change in melting temperature at 10 microM measured after 15 mins by FRET assay; assay type: nucleic-acid assay
[10] = Stabilization of ds 5'-FAM-d(TATAGCTATA-HEG-TATAGCTATA)-TAMRA-3' (unknown origin) assessed as change in melting temperature at 10 microM measured after 15 mins by FRET assay; conditions: Homo sapiens
MDA-MB-231 [11] = assay: Cytotoxicity against human MDA-MB-231 cells assessed as reduction in cell viability measured after 72 hrs by SRB assay; assay type: functional, cell-based; conditions: MDA-MB-231, 72 h
Capan-2 = assay: Cytotoxicity against human Capan-2 cells assessed as reduction in cell viability measured after 72 hrs by SRB assay; assay type: functional, cell-based; conditions: Capan-2, 72 h
PANC-1 [12] = assay: Antitumour activity against human PANC-1 cells xenografted in Crl:Nu-Foxnl nu mouse assessed as inhibition of tumour growth at total effective dose of 8 mg/kg, iv measured on day 52; assay type: functional; conditions: PANC-1, iv, 1248 h, time 52 day, read-out: TGI
PC-3 = assay: Cytotoxicity against human PC-3 cells assessed as reduction in cell viability measured after 72 hrs by SRB assay; assay type: functional, cell-based; conditions: PC-3, 72 h
HT-29 = assay: Cytotoxicity against human HT-29 cells assessed as reduction in cell viability measured after 72 hrs by SRB assay; assay type: functional, cell-based; conditions: HT-29, 72 h
UMUC3 = assay: Cytotoxicity against human UMUC3 cells assessed as reduction in cell viability measured after 72 hrs by SRB assay; assay type: functional, cell-based; conditions: UMUC3, 72 h
MCF7 = assay: Cytotoxicity against human MCF7 cells assessed as reduction in cell viability measured after 72 hrs by SRB assay; assay type: functional, cell-based; conditions: MCF7, 72 h
W256 = assay: Antitumour activity against Walker 256 adenocarcinoma cells implanted in Wistar rat assessed as increase in animal survival rate by measuring T/C ratio at 0.65 mg/kg, ip qd for 3 days administered on day 3,4,5 after tumor cell transplantation; assay type: functional; conditions: time 3 day
NCI-H460 [13] = assay: Antitumour activity against human NCI-H460 cells xenografted in Crl:Nu-Foxnl nu mouse assessed as inhibition of tumour growth at total effective dose of 5 mg/kg, iv measured on day 15; assay type: functional; conditions: 360 h, time 15 day, read-out: TGI
NCI-H460 [14] = assay: Antitumour activity against human NCI-H460 cells xenografted in Crl:Nu-Foxnl nu mouse assessed as inhibition of tumour growth at total effective dose of 16 mg/kg, iv measured on day 14; assay type: functional; conditions: 336 h, time 14 day, read-out: TGI
PANC-1 [15] = assay: Antitumour activity against human PANC-1 cells xenografted in Crl:Nu-Foxnl nu mouse assessed as inhibition of tumour growth at total effective dose of 10 mg/kg, iv measured on day 45; assay type: functional; conditions: PANC-1, iv, 1080 h, time 45 day, read-out: TGI

| Structure (SMILES) | IC50 (DU-145) | IC50 (NCI-H460 [1]) | IC50 (HCT-116) | IC50 (PANC-1 [2]) | IC50 (MIA PaCa-2) | IC50 (BXPC-3 [3]) | IC50 (ASPC1) | ΔTm (Quadruplex DNA [7]) | ΔTm (Quadruplex DNA [8]) | ΔTm (Quadruplex DNA [9]) | ΔTm [10] | IC50 (MDA-MB-231 [11]) | other results |
| --- | --- | --- | --- | --- | --- | --- | --- | --- | --- | --- | --- | --- | --- |
| Cc1cc(NCCCN(C)CCCNc2ccc3ncn4c5ccccc5c(=O)c2c34)c([N+](=O)[O-])c2cc3ccccc3nc12 | 0.065 µM | 0.025 µM | 0.065 µM | 0.098 µM | 0.087 µM | 0.224 µM | 1.18 µM | 21.9 °C | 23.3 °C | 23.7 °C | 3.4 °C | – | inhibition in vivo at 160 mg/kg (BXPC-3 [4]): 84%; inhibition in vivo at 160 mg/kg (BXPC-3 [5]): 47%; inhibition in vivo at 120 mg/kg (MDA-MB-231 [6]): 62% |
| NC(CCN1CCN(CCCNc2ccc3nnn4c5ccccc5c(=O)c2c34)CC1)c1ccc2nc3ccccc3cc2c1[N+](=O)[O-] (stereo not given) | 0.022 µM | – | 0.022 µM | 0.138 µM | 0.041 µM | 0.12 µM | 0.103 µM | 33.2 °C | 26.1 °C | 26.6 °C | 3.9 °C | 0.152 µM | IC50 (Capan-2): 0.033 µM; inhibition in vivo at 8 mg/kg (PANC-1 [12]): 39% |
| CN(CCCNc1c2ccccc2nc2cccc([N+](=O)[O-])c12)CCCNc1ccc([N+](=O)[O-])c2[nH]c3ccccc3c(=O)c12 | 0.024 µM | 0.01 µM | 0.26 µM | 0.028 µM | 0.103 µM | – | 0.066 µM | 19.4 °C | 24.5 °C | 27.4 °C | – | 0.028 µM | IC50 (PC-3): 0.051 µM; IC50 (HT-29): 0.067 µM; IC50 (UMUC3): 0.029 µM; IC50 (MCF7): 0.695 µM; T/C (W256): 450%; inhibition in vivo at 5 mg/kg (NCI-H460 [13]): 14%; inhibition in vivo at 16 mg/kg (NCI-H460 [14]): 35%; inhibition in vivo at 10 mg/kg (PANC-1 [15]): 23% |

Source: ChEMBL document CHEMBL4765407, “Design, synthesis and high antitumor potential of new unsymmetrical bisacridine derivatives towards human solid tumors, specifically pancreatic cancers and their unique ability to stabilize DNA G-quadruplexes” (Eur J Med Chem, 2020)
